Data published in patent EP1202975B1, “SUBSTITUTED POLYCYCLIC ARYL AND HETEROARYL PYRAZINONES USEFUL FOR SELECTIVE INHIBITION OF THE COAGULATION CASCADE” (Pharmacia Corporation, priority 1999, dated 2000).
Like-named read-outs stand apart in the source and are kept apart here.

Columns and labels:
Human factor Xa = Human factor Xa (Homo sapiens, UniProt P00742); assay: Xa Assay; conditions: for IC50 or % Inhibition Factor Xa (30 µM): % inhibition at 30 µM
TF-VIIa = molecular target: T1, TF-VIIa (Homo sapiens, UniProt P08709); assay: TF-VIIa Assay; format: biochemical
T1 construct: 2nM recombinant human factor VIIa; purchased American Diagnostica, Greenwich CT; host or cells: soluble TF made in house in E. coli
T1 sequence (P08709 213-466 limits assumed): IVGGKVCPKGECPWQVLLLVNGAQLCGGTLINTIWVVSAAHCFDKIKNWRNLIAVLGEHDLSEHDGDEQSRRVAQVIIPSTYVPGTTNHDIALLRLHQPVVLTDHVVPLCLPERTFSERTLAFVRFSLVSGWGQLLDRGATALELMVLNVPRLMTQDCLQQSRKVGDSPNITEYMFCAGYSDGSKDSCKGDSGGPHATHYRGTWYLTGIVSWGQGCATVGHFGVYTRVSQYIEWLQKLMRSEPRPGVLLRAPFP
T1 sequence (P08709 61-212 limits assumed): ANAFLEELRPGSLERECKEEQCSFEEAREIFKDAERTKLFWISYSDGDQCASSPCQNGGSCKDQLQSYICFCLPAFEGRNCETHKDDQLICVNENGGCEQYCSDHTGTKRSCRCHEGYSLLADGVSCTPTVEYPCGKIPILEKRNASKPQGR
T1 sequence (P13726 33-251 partner limits assumed): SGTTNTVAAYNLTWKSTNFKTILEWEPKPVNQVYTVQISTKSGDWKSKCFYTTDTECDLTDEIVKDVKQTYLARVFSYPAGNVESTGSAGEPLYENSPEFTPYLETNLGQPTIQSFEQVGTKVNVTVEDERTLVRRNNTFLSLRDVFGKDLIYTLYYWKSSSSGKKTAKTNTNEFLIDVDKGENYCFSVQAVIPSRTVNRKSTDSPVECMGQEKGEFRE

[1] = read-out: IC50 or % Inhibition Factor Xa (30 µM), cells given as a plain number (IC50)
[2] = cells given as a plain number (IC50); read-out: IC50 or % Inhibition TF-VIIa (30 µM)
[3] = read-out: IC50 or % Inhibition TF-VIIa (30 µM); cells given as a plain number (IC50)

Chain of Human factor Xa (P00742 235-488 limits assumed): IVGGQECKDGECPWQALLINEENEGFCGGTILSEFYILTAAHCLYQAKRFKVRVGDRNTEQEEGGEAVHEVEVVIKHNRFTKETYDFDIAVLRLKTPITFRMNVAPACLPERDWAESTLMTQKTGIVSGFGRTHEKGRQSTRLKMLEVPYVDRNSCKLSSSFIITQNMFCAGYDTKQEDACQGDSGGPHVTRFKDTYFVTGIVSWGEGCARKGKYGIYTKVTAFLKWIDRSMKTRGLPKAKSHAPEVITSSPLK
Chain of Human factor Xa (P00742 41-179 limits assumed): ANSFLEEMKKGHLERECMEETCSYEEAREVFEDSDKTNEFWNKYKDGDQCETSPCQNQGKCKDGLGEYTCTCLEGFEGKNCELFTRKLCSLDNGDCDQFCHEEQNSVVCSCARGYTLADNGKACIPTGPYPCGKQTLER

| IC50 (Human factor Xa; [1]) [nM] | IC50 (TF-VIIa; [2]) [nM] | IC50 or % Inhibition Factor Xa (30 µM) (Human factor Xa) | IC50 (TF-VIIa; [3]) [nM] | SMILES | also measured |
| --- | --- | --- | --- | --- | --- |
| > 30000 | 2900 | – | – | N=C(N)c1ccc(CNC(=O)Cn2c(-c3cccc(C(F)(F)F)c3)c(Cl)nc(NCCc3ccccc3)c2=O)cc1 [1515-25] | – |
| > 30000 | – | – | 600 | N=C(N)c1ccc(CNC(=O)Cn2c(-c3cccs3)c(Cl)nc(NC3CCC3)c2=O)cc1 [1515-18] | – |
| – | 210 | 9% | – | CC(C)Nc1nc(Cl)c(-c2cccnc2)n(CC(=O)NCc2ccc(C(=N)N)cc2)c1=O [compound 75] | – |
| > 30000 | – | – | 100 | COCC(C)Nc1nc(Cl)c(-c2cccc(N)c2)n(CC(=O)NCc2ccc(C(=N)N)cc2)c1=O (stereo not shown) [1526-05] | – |
| > 30000 | – | – | 620 | CC(C)CC(C)Nc1nc(Cl)c(-c2ccccc2)n(CC(=O)NCc2ccc(C(=N)N)cc2)c1=O (stereo not shown) [1522-17] | – |
| > 30000 | – | – | – | N=C(N)c1ccc(CNC(=O)Cn2c(-c3ccccc3)c(Cl)nc(NCc3cccc4ccccc34)c2=O)cc1 [1507-28] | IC50 or % Inhibition TF-VIIa (30 µM) (TF-VIIa): 38% |
| > 30000 | – | – | 1000 | N=C(N)c1ccc(CNC(=O)Cn2c(-c3ccccc3)c(Cl)nc(NCCCCN3CCCC3)c2=O)cc1 [1522-42] | – |
| > 30000 | – | – | 7000 | N=C(N)c1ccc(CNC(=O)Cn2c(-c3cccc(C(F)(F)F)c3)c(Cl)nc(NCc3ccccc3)c2=O)cc1 [1515-01] | – |
| – | 150 | 0% | – | CC(C)Nc1nc(Cl)c(-c2cccc(N)c2)n(CC(=O)NCc2ccc(C(=N)N)s2)c1=O [Example 55] | – |
| – | 660 | – | – | N=C(N)NCCCNc1nc(Cl)c(-c2ccccc2)n(CC(=O)NCc2ccc(C(=N)N)cc2)c1=O [Example 47] | IC50 (Human factor Xa): 10600 nM |
| – | – | 8%@30 | – | Nc1cccc(-c2c(Cl)nc(NC3CCC3)c(=O)n2CC(=O)NCc2ccccc2)c1 [compound 99] | IC50 or % Inhibition TF-VIIa (30 µM) (TF-VIIa; % inhibition at 30 µM): 6%@30 |
| – | 200 | – | – | N=C(N)NCCC[C@H](NC(=O)Cn1c(Cc2ccccc2)cnc(NCCc2ccccc2)c1=O)C(=O)c1nccs1 [Example 7] | IC50 (Human factor Xa): 3000 nM |
| > 30000 | – | – | 50 | C#CCNc1nc(Cl)c(-c2cccc(N)c2)n(CC(=O)NCc2ccc(C(=N)N)cc2)c1=O [1526-21] | – |
| > 30000 | – | – | – | N=C(N)c1ccc(CNC(=O)Cn2c(-c3ccccc3)c(Cl)nc(NC(Cc3ccccc3)c3ccccc3)c2=O)cc1 (stereo not shown) [1507-07] | IC50 or % Inhibition TF-VIIa (30 µM) (TF-VIIa): 25% |
| – | 570 | 20% | – | N=C(N)NCCNc1nc(Cl)c(-c2ccccc2)n(CC(=O)NCc2ccc(C(=N)N)cc2)c1=O [Example 48] | – |
| – | 70 | 26%@30 | – | N=C(N)c1ccc(CNC(=O)Cn2c(-c3cccc(N)c3)c(Cl)nc(NCCc3ccccc3)c2=O)cc1 [compound 86] | – |
| – | 300 | 11%@30 | – | CN(C)c1cccc(-c2c(Cl)nc(NCCc3ccccc3)c(=O)n2CC(=O)NCc2ccc(C(=N)N)cc2)c1 [Example 103] | – |
| > 30000 | – | – | 4100 | N=C(N)c1ccc(CNC(=O)Cn2c(-c3cccc(F)c3)c(Cl)nc(NCc3ccccc3)c2=O)cc1 [1515-09] | – |
| – | 300 | 7% | – | N#CCCNc1nc(Cl)c(-c2ccccc2)n(CC(=O)NCc2ccc(C(=N)N)cc2)c1=O [Example 53] | – |
| – | 3200 | 7% | – | CCCCNc1nc(Cl)c(-c2ccccc2)n(CC(=O)NCc2ccc(C(=N)N)cc2)c1=O [1512-14] | – |
| > 30000 | – | – | 14200 | N=C(N)c1ccc(CNC(=O)Cn2c(-c3ccc(F)cc3)c(Cl)nc(NCc3ccccc3)c2=O)cc1 [1515-07] | – |
| – | 800 | 22%@30 | – | N=C(N)c1ccc(CNC(=O)Cn2c(-c3ccccc3)c(Cl)nc(NCCc3ccncc3)c2=O)cc1 [Example 19] | – |

Further lines, the molecule ahead of its results:

| SMILES | IC50 (Human factor Xa; [1]) [nM] | IC50 (TF-VIIa; [2]) [nM] | IC50 or % Inhibition Factor Xa (30 µM) (Human factor Xa) | IC50 (TF-VIIa; [3]) [nM] | also measured |
| --- | --- | --- | --- | --- | --- |
| CC(C)CNc1nc(Cl)c(-c2ccccc2)n(CC(=O)NCc2ccc(C(=N)N)cc2)c1=O [1522-34] | > 30000 | 500 | – | – | – |
| Cc1ccccc1-c1c(Cl)nc(NCCc2ccccc2)c(=O)n1CC(=O)NCc1ccc(C(=N)N)cc1 [compound 78] | – | 430 | 16%@30 | – | – |
| CC(C)CNc1nc(Cl)c(-c2ccccc2)n(CC(=O)NCc2ccc(C(=N)N)cc2)c1=O [1507-32] | > 30000 | 21300 | – | – | – |
| CC(C)(C)CCNc1nc(Cl)c(-c2ccccc2)n(CC(=O)NCc2ccc(C(=N)N)cc2)c1=O [1522-18] | > 30000 | 1700 | – | – | – |
| CC(C)C(C)Nc1nc(Cl)c(-c2cccc(N)c2)n(CC(=O)NCc2ccc(C(=N)N)cc2)c1=O (stereo not shown) [1526-15] | > 30000 | – | – | 60 | – |
| CC(C)NC(=O)Nc1ncc(-c2ccccc2)n(CC(=O)NCc2ccc(C(=N)N)cc2)c1=O [Example 109] | – | 6170 | 10% | – | – |
| N=C(N)c1ccc(CNC(=O)Cn2c(-c3ccccc3)c(Cl)nc(NCc3ccc(OC(F)(F)F)cc3)c2=O)cc1 [1507-04] | > 30000 | – | – | 29500 | – |
| N=C(N)c1ccc(CNC(=O)Cn2c(-c3cccc(N)c3)c(Cl)nc(N[C@@H]3CC4CCC3C4)c2=O)cc1 (stereo partly shown) [1526-30] | > 30000 | – | – | 80 | – |
| N=C(N)c1ccc(CNC(=O)Cn2c(-c3ccccc3)c(Cl)nc(NCCN3CCCC3)c2=O)cc1 [1522-08] | > 30000 | – | – | 270 | – |
| CC(C)(C)Nc1nc(Cl)c(-c2cccc(N)c2)n(CC(=O)NCc2ccc(C(=N)N)cc2)c1=O [compound 93] | > 30000 | 70 | – | – | – |
| COc1ccccc1-c1c(Cl)nc(NCCc2ccccc2)c(=O)n1CC(=O)NCc1ccc(C(=N)N)cc1 [1515-26] | > 30000 | 1600 | – | – | – |
| N=C(N)c1ccc(CNC(=O)Cn2c(-c3ccccc3)c(Cl)nc(NCc3ccc(Br)cc3)c2=O)cc1 [1507-30] | > 30000 | – | – | 13400 | – |
| N=C(N)c1ccc(CNC(=O)Cn2c(-c3ccccc3)c(Cl)nc(NCc3cccc(C(=N)N)c3)c2=O)cc1 [Example 52] | – | 590 | – | – | IC50 (Human factor Xa): 24000 nM |
| N=C(N)c1ccc(CNC(=O)Cn2c(-c3ccccc3F)c(Cl)nc(NC3CCC3)c2=O)cc1 [1515-23] | > 30000 | – | – | 6200 | – |
| N=C(N)c1ccc(CNC(=O)Cn2c(-c3ccccc3C(F)(F)F)c(Cl)nc(NC3CCC3)c2=O)cc1 [1515-24] | > 30000 | – | – | 1600 | – |
| N=C(N)c1ccc(CNC(=O)Cn2c(-c3ccccc3)c(Cl)nc(NC3CC3)c2=O)cc1 [1507-31] | > 30000 | – | – | 3700 | – |
| N=C(N)c1ccc(CNC(=O)Cn2c(-c3ccccc3)c(Cl)nc(NC3CCCCCC3)c2=O)cc1 [1512-16] | – | 6500 | 10% | – | – |
| CCC(C)Nc1nc(Cl)c(-c2cccc(N)c2)n(CC(=O)NCc2ccc(C(=N)N)cc2)c1=O (stereo not shown) [1526-14] | > 30000 | – | – | 40 | – |
| Cc1cccc(-c2cnc(NCCc3ccccc3)c(=O)n2CC(=O)NCc2ccc(C(=N)N)cc2)c1 [compound 85] | – | 880 | 42%@30 | – | – |
| CC(C)Nc1nc(Cl)c(-c2cccc(C#N)c2)n(CC(=O)NCc2ccc(C(=N)N)cc2)c1=O [Example 17] | – | 710 | 41% | – | – |
| N=C(N)NCCCCNC(=O)Cn1c(-c2ccccc2)cnc(NCCc2ccccc2)c1=O [Example 12] | – | > 100000 | – | – | IC50 (Human factor Xa): > 100000 nM |
| CC(CNc1nc(Cl)c(-c2ccccc2)n(CC(=O)NCc2ccc(C(=N)N)cc2)c1=O)N(C)C (stereo not shown) [1522-23] | > 30000 | – | – | 2200 | – |
